Reference: US20110312986A1, “Composition and Method for Treating Overactive Bladder” (ALLERGAN, INC., priority 2010, published 2011)
Like-named read-outs stand apart in the source and are kept apart here. Each block holds one compound with its values, some of them ahead of it.

Assays:
clinical = details: both, human, plasma, oral
[1] = Steady-state plasma pharmacokinetics of Trospium in subjects 65 years or older with overactive bladder symptoms (Example 1); format: in vivo, human; details: Day 10, 60 mg Trospium daily for 10 days
Protocol: (§1) A single-center, single-blind, randomized, placebo-controlled, parallel group study was conducted to evaluate whether Trospium permeates across the human blood-brain barrier and whether Trospium could cause cognitive impairment.

[2] = through tubular secretion and glomerular filtration; cited from earlier work
[3] = Neuropsychology testing: HVLT-R and BVMT-R, reliable change index (Example 1); format: in vivo, human
Protocol: as §1
For neuropsychology testing, each subject underwent the Hopkins Verbal Learning Test-Revised (HVLT-R) and the Brief Visuospatial Memory Test-Revised (BVMT-R) on Days 0, 9, and 10. Pre-dose (Day 0) and post-dose (Day 10) results on the neuropsychology tests were compared using a reliable change index to assess a change in learning of memory.

[4] = Trospium in cerebrospinal fluid: permeation across the blood-brain barrier (Example 1); format: in vivo, human
Protocol: as §1
For cerebrospinal fluid sampling at each pharmacokinetics time point, about 2.5 mL of cerebral spinal fluid was collected on Day 10 at 0 hr, 2 hr, 5 hr, 7 hr, 12 hr, and 24 hr post dose.

[5] = for Trospium Ae,0-24 (amount excreted unchanged in urine) / Trospium Ae,0-24/Dose (percentage of dose excreted in urine) / Trospium CLss/F (oral clearance) / Tmax: steady state; for Tmax: Trospium Tmax
[6] = metabolite of Trospium; cited from earlier work
[7] = 60 mg Trospium with 500 mg Metformin
[8] = Glucophage/Sanctura XR regime (co-administered with 500 mg Metformin twice daily), N = 43
[9] = Trospium with Metformin versus Trospium alone
[10] = both, human, plasma, oral, 60 mg
[11] = column headed Glucophage ® Dosage Regime, N = 44, 60 mg Trospium daily for 10 days alone

- concentration at 11 hr (clinical): 155 ng/mL
- concentration at 15 hr (clinical): 83 ng/mL
SMILES: CN(C)C(=N)N=C(N)N [Metformin, N,N-dimethylimidodicarbonimidic diamide]

SMILES: O=C(OC1CC2CCC(C1)[N+]21CCCC1)C(O)(c1ccccc1)c1ccccc1.[Cl-] (stereo not shown) [Trospium, 3-(2-hydroxy-2,2-diphenylacetoxy) spiro[bicyclo[3.2.1]octane-8,1′-pyrrolidin]-1′-ium chloride]
- Trospium concentration in plasma ([1]; 0 hr post dose): 522 pg/mL
- Trospium concentration in plasma ([1]; 5 hr post dose): 925 pg/mL
- Trospium concentration in plasma ([1]; 24 hr post dose): 649 pg/mL
- Time of peak plasma concentration post-dosing [1]: 5 h
- AUC(0-t) ([1]; both sexes, human, plasma, linear trapezoidal rule, read-out: AUC0-24, steady state): 18500 ng·h/mL
- Cmax ([1]; both sexes, human, plasma, read-out: Peak plasma concentration (Cmax)): 0.925 ng/mL
- Share of the absorbed dose excreted unchanged in the urine [2]: 60%
- Net drug effect on cognition (HVLT-R, BVMT-R) ([3]; Day 0 versus Day 10, one subject deteriorated on total recall in both tests): no meaningful net drug effect on cognition
- Cognitive impairment or memory loss ([3]; conclusion from the neuropsychology testing): does not cause cognitive impairment or memory loss
- Trospium concentration in cerebrospinal fluid ([4]; 0 hr post dose, Day 10, 60 mg Trospium daily for 10 days): <40 pg/mL
- Trospium concentration in cerebrospinal fluid ([4]; 5 hr post dose, Day 10, 60 mg Trospium daily for 10 days): <40 pg/mL
- Trospium concentration in cerebrospinal fluid ([4]; 24 hr post dose, Day 10, 60 mg Trospium daily for 10 days): <40 pg/mL
- Trospium in cerebrospinal fluid, all 72 samples ([4]; Day 10, 0 to 24 hr post dose, detectable range 40 pg/mL): < 40 pg/mL
- concentration at 5 h ([4]; both sexes, human, cerebrospinal fluid, 5 hr post dose, Day 10, 60 mg Trospium daily for 10 days): < 0.04 ng/mL
- Crossing of the blood-brain barrier ([4]; conclusion from the cerebrospinal fluid levels): does not cross the blood-brain barrier
- Reduction of steady-state AUC0-24 of Trospium by co-administered Metformin [5, 7]: ~29%
- Reduction of steady-state Cmax of Trospium by co-administered Metformin [5, 7]: approximately 34%
- Trospium Ae,0-24 (amount excreted unchanged in urine) [5, 8]: 0.281 ± 0.156 mg
- Trospium Ae,0-24/Dose (percentage of dose excreted in urine) [5, 8]: 0.468 ± 0.260%
- Trospium CLss/F (oral clearance) [5, 8]: 4830 ± 2320 L/h
- Percentage Ratio and 90% CI of the Geometric Mean of AUC0-24 (Combination/Alone) [5, 9]: 70.8 (66.2-75.7) %
- Percentage Ratio and 90% CI of the Geometric Mean of Cmax (Combination/Alone) [5, 9]: 66.3 (61.0-72.0) %
- AUC(0-t) [5, 10]: 22.7 ng·h/mL
- Cmax [5, 10]: 1.87 ng/mL
- concentration at 0 hr [5, 10]: 0.676 ng/mL
- concentration at 1 hr [5, 10]: 0.831 ng/mL
- concentration at 2 hr [5, 10]: 1.36 ng/mL
- concentration at 3 hr [5, 10]: 1.57 ng/mL
- concentration at 4 hr [5, 10]: 1.54 ng/mL
- concentration at 5 hr [5, 10]: 1.53 ng/mL
- concentration at 6 hr [5, 10]: 1.66 ng/mL
- concentration at 8 hr [5, 10]: 1.12 ng/mL
- concentration at 10 hr [5, 10]: 0.878 ng/mL
- concentration at 12 hr [5, 10]: 0.781 ng/mL
- concentration at 16 hr [5, 10]: 0.676 ng/mL
- concentration at 24 hr [5, 10]: 0.655 ng/mL
- Tmax ([5]; both, human, plasma, oral, 60 mg, column headed Glucophage ® Dosage Regime, N = 44, 60 mg Trospium daily for 10 days alone): ~4.42 h
- Tmax ([5]; both, human, plasma, oral, Glucophage/Sanctura XR regime (co-administered with 500 mg Metformin twice daily), N = 43): ~4 h
- CL renal ([5]; both, human, urine and plasma, oral, 60 mg): 307 mL/min
- Trospium Ae,0-24 (amount excreted unchanged in urine) [5, 11]: 0.400 ± 0.247 mg
- Trospium Ae,0-24/Dose (percentage of dose excreted in urine) [5, 11]: 0.667 ± 0.411%
- Trospium CLss/F (oral clearance) [5, 11]: 3510 ± 1920 L/h
- Reduction in percentage of Trospium dose excreted in urine on co-administration of Metformin ([5]; p value<0.0001): 30%

SMILES: OC1C[C@H]2CC[C@@H](C1)[N+]21CCCC1 (stereo partly shown) [azoniaspironortropanol]
- Pharmacological activity of the metabolite [6]: pharmacologically inactive
